# In patent publication US11382889B2, “NRF2 activators for the prevention and/or treatment of axonal degeneration” (priority 2018, dated 2022):
# Counter-ions that a name gives are not always drawn.
# Assays:
# Abcd1− mice spinal cord = assay: Inflammatory profile (quantitative RT-PCR) and oxidative lesions (GC/MS) in Abcd1− mice spinal cord; type: in vivo; settings: 12 months of age
# Description: a) Th1 (Nfκb2, Il1β, Il6, Tnfα, Tnfrsf1a, Ccl5, Cxcl9, Cxcl10, Ccr6) and b) Th2 (Fizz1, Chil3, Cxcl12, Il10, Igf1, Mif, Tgfβ1) inflammatory profile in WT (n=8), Abcd1^− (n=8) and Abcd1^−+DMF (n=8) mice spinal cord at 12 months of age. Cytokines, chemokines and other inflammation-related genes expression was measured by quantitative RT-PCR. Gene expression levels were normalized relative to Rplp0. Quantification is depicted as fold change to WT mice. c) Oxidative lesions to lipids and proteins in WT (n=5), Abcd1^− (n=5) and Abcd1^−+DMF (n=5) mice spinal cord at 12 months of age. AASA, CEL, CML and MDAL levels were measured by GC/MS. Quantification is represented as fold change to WT mice. Data are shown as mean±SD (*p<0.05, **p<0.01, ***p<0.001 after one-way ANOVA test followed by Tukey's post-hoc test; p<0.05, p<0.01, p<0.001 after non-parametric Kruskal-Wallis' test).
# Cages contained 3 to 5 animals.
# We used two X-ALD mouse models in this study. We characterized the biochemical signs of adult X-ALD in Abcd1^− mice at 12 months of age. These mice show biochemical signs of pathology, including oxidative stress and energetic homeostasis impairment, before the first clinical signs of AMN-like pathology (axonopathy and locomotor impairment) appear at 20 months.
# For biochemical analysis, we killed the mice and stored the tissues at −80° C. after snap-freezing them in liquid nitrogen. For histological analysis, spinal cord was harvested from 18-month-old mice after perfusing them with 4% paraformaldehyde (PFA; Sigma-Aldrich, Ref. 441244) in 0.1 M phosphate buffer pH 7.4. Histological and behavioural tests were performed in a blind way with respect to the animal's genotype and for the treatment administered.
# In Abcd1^− mouse, a functional genomics assay detected NFκB-mediated inflammatory pathway activation in Abcd1^− mouse spinal cord, and increased expression of several proinflammatory genes. Regarding AMN patients, we have recently described a general dysregulation of inflammatory pathways in peripheral blood mononuclear cells (PBMCs) and plasma from AMN patients. As DMF is a classical immunomodulatory drug, we examined its effects on mRNA expression of several inflammation-related genes in Abcd1^− mice spinal cord.
# Nuclear factor kappa B subunit 2 (Nfκb2), which belongs to the non-canonical NFκB pathway, as well as the majority of M1 markers were increased in Abcd1^− mouse spinal cord, including interleukin 1 beta (Il1β), tumour necrosis factor alpha (Tnfα), tumour necrosis factor receptor superfamily member 1a (Tnfrsf1a), chemokine (C-C motif) ligand 5 (Ccl5), chemokine (C-X-C motif) ligand 9 (Cxcl9), chemokine (C-X-C motif) ligand 10 (Cxcl10) and chemokine (C-C motif) receptor type 6 (Ccr6) (FIG. 2a). […] Only few of them were decreased in Abcd1^− mouse spinal cord: interleukin 6 ([…]), resistin like alpha (Retnla, also called Fizz1) and macrophage migration inhibitory factor (Mif) (FIG. 2a-b).
# [1] = Tolerability of dietary DMF in mice (weight, food intake, adverse events); settings: DMF 100 mg/kg/day in chow
# Source text: We used male mice of a pure C57BL/6J background. All methods employed in this study were in accordance with the Guide for the Care and Use of Laboratory Animals (Guide, 8th edition, 2011, NIH) and European (2010/63/UE) and Spanish (RD 53/2013) legislation. Experimental protocol had been approved by IDIBELL, IACUC (Institutional Animal Care and Use Committee) and regional authority (3546 DMAH, Generalitat de Catalunya, Spain). IDIBELL animal facility has been accredited by The Association for Assessment and Accreditation of Laboratory Animal Care (AAALAC, Unit 1155). Animals were housed at 22° C. on specific-pathogen free conditions, in a 12-hour light/dark cycle, and ad libitum access to food and water. Cages contained 3 to 5 animals.
# DMF was mixed into AIN-76A chow from Dyets (Bethlehem, Pa., USA) to provide a dose of 100 mg/kg/day. Human equivalent dose would be 8 mg/kg/day ([…] in a typical 60 kg person). This is equivalent to the starting dose of BG-12/Tecfidera that is 120 mg twice a day for MS patients (EMA/204830/2013).
# For the characterization of biochemical signs on adult X-ALD mice, 8-months-old animals were randomly assigned to one of the following dietary groups for 4 months.
# Group I: wild-type (WT) mice received normal AIN-76A chow (n=12); group II: Abcd1^− mice received normal AIN-76A chow (n=12); group III: Abcd1^− mice received AIN-76A chow containing DMF (n=12). To evaluate the effect of DMF on the clinical signs of AMN-like pathology, 12-months-old animals were randomly assigned to one of the following dietary groups for 6 months. Group I: WT mice received normal AIN-76A chow (n=14); group II: Abcd1^−/Abcd2^−/− mice received normal AIN-76A chow (n=16); group III: Abcd1^−/Abcd2^−/− mice received AIN-76A chow containing DMF (n=14).
# [2] = Abcd1− mouse spinal cord, DMF 100 mg/kg/day in chow
# [3] = any treatment protocol (4 or 6 months)
smiles,measurement,setting,value
"COC(=O)/C=C/C(=O)OC [DMF, dimethyl fumarate]","oxidative damage to proteins and lipids (AASA, CEL, CML, MDAL)","Abcd1− mice spinal cord; Abcd1− mice spinal cord, DMF 100 mg/kg/day in chow for 4 months",prevents
same,Il1β and Chil3 mRNA,Abcd1− mice spinal cord; [2],exacerbated the induction
same,"Tnfrsf1a, Cxcl9 and Fizz1 mRNA",Abcd1− mice spinal cord; [2],no effect
same,interleukin 10 (Il10) mRNA,Abcd1− mice spinal cord; [2],upregulated
same,"mRNA levels of Nfκb2, Il6, Tnfα, Ccl5, Cxcl10, Ccr6, Mif, Cxcl12, Tgfβ1, Igf1",Abcd1− mice spinal cord; [2],normalizing
same,adverse events or death during treatment,[1]; 4 or 6 months,none of the mice administered with DMF experienced any adverse events or death
same,effect on food intake,[1]; [3],no effect
same,effect on weight,[1]; [3],no effect
